Measurements from patent US11001586B2, “Alkyl pyrrolopyrimidine analogs and methods of making and using same” (The University of North Carolina at Chapel Hill, priority 2016, dated 2021).

Key:
[1] = biological target: Mer tyrosine kinase (Homo sapiens (Human), UniProt Q12866); assay: Evaluation of activity against Mer tyrosine kinase; format: biochemical
[2] = biological target: Tyro3 tyrosine kinase (Homo sapiens (Human), UniProt Q06418); assay: Evaluation of activity against Tyro3 tyrosine kinase; format: biochemical
Tyro3 tyrosine kinase, sequence (Q06418 41-890): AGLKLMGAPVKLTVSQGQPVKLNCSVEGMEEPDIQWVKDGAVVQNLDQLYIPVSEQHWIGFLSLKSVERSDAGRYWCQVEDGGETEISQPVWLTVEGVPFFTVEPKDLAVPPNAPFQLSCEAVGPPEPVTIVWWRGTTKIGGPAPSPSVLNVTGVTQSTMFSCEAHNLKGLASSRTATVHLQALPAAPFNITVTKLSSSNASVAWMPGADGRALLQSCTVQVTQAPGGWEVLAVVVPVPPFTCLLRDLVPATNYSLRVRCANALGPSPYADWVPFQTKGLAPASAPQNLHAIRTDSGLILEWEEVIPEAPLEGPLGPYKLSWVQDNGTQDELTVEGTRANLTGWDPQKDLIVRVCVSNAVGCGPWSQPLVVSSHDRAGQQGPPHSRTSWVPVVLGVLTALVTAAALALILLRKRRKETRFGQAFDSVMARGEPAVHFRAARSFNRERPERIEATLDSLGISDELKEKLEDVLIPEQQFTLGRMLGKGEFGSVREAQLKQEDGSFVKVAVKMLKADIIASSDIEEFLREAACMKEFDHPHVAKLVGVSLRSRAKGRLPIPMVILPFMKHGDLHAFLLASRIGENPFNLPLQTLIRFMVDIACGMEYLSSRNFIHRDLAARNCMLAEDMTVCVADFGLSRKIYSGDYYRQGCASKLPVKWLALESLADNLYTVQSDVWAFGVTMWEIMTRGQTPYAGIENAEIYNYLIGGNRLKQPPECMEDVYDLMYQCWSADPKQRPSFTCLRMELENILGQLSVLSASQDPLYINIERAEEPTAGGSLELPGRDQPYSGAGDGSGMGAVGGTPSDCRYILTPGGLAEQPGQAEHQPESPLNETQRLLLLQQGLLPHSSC

Mer tyrosine kinase, sequence (Q12866 21-999): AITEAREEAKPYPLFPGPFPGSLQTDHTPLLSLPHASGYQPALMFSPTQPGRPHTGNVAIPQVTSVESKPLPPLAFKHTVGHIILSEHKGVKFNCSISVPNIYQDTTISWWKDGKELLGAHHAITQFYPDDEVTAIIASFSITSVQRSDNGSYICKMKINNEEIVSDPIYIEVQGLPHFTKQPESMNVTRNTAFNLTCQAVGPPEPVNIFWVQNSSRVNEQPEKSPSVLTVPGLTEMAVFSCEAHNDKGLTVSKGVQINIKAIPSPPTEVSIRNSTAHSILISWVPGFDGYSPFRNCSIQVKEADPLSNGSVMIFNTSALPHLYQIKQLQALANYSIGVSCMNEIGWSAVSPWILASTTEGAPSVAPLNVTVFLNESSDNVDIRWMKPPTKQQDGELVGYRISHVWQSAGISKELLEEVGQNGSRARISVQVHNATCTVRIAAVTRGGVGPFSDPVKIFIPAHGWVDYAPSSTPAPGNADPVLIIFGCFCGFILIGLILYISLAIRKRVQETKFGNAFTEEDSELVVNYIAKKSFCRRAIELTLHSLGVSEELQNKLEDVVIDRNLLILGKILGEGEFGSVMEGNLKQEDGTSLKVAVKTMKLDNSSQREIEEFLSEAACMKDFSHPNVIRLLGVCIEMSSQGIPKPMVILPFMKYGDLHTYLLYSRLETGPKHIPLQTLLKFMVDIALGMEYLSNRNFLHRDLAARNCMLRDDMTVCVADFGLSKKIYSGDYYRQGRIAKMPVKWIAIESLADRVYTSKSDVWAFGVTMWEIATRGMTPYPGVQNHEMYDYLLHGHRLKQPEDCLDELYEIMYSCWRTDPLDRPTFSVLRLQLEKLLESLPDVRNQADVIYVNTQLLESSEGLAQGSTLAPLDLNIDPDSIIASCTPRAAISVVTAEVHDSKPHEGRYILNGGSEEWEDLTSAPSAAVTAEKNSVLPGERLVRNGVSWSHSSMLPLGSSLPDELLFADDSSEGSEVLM

Row | SMILES | IC50 [1] [nM] | IC50 [2] [nM]
1 | CCC[C@H](C)Nc1ncc2c(C3CCN(CC4CCN(C)CC4)CC3)cn([C@H]3CC[C@H](O)CC3)c2n1 [compound 54, (1S,4R)-4-(5-(1-((1-methylpiperidin-4-yl)methyl)piperidin-4-yl)-2-(((S)-pentan-2-yl)amino)-7H-pyrrolo[2,3-d]pyrimidin-7-yl)cyclohexan-1-ol] | < 10 | 10 to 100
2 | CCC[C@H](C)Nc1ncc2c(C3CCN(S(=O)(=O)C4CCN(C)CC4)CC3)cn([C@H]3CC[C@H](O)CC3)c2n1 [compound 1, (1S,4R)-4-(5-(1-((1-methylpiperidin-4-yl)sulfonyl)piperidin-4-yl)-2-(((S)-pentan-2-yl)amino)-7H-pyrrolo[2,3-d]pyrimidin-7-yl)cyclohexan-1-ol] | < 10 | 10 to 100
3 | CC[C@H]1C[C@@H]1Nc1ncc2c(C3CCN(C(=O)c4ccncc4)CC3)cn([C@H]3CC[C@H](O)CC3)c2n1 [compound 42, (4-(2-(((1S,2S)-2-ethylcyclopropyl)amino)-7-((1R,4S)-4-hydroxycyclohexyl)-7H-pyrrolo[2,3-d]pyrimidin-5-yl)piperidin-1-yl)(pyridin-4-yl)methanone] | < 10 | 100 to 1000
4 | CCC[C@H](C)Nc1ncc2c(C3CCN(C(=O)C4CCN(CCF)CC4)CC3)cn([C@H]3CC[C@H](O)CC3)c2n1 [compound 36, (1-(2-fluoroethyl)piperidin-4-yl)(4-(7-((1R,4S)-4-hydroxycyclohexyl)-2-(((S)-pentan-2-yl)amino)-7H-pyrrolo[2,3-d]pyrimidin-5-yl)piperidin-1-yl)methanone] | < 10 | 10 to 100
5 | CCC[C@H](C)Nc1ncc2c(C3CCN(C(=O)C4CCNCC4)CC3)cn([C@H]3CC[C@H](O)CC3)c2n1 [compound 8, (4-(7-((1R,4S)-4-hydroxycyclohexyl)-2-(((S)-pentan-2-yl)amino)-7H-pyrrolo[2,3-d]pyrimidin-5-yl)piperidin-1-yl)(piperidin-4-yl)methanone] | < 10 | 10 to 100
6 | CCC[C@H](C)Nc1ncc2c(C3CCN(C(=O)[C@@H]4CCCCN4)CC3)cn([C@H]3CC[C@H](O)CC3)c2n1 [compound 19, (4-(7-((1R,4S)-4-hydroxycyclohexyl)-2-(((S)-pentan-2-yl)amino)-7H-pyrrolo[2,3-d]pyrimidin-5-yl)piperidin-1-yl)((S)-piperidin-2-yl)methanone] | < 10 | 10 to 100
7 | CCC[C@H](C)Nc1ncc2c(C3CCN(C(=O)[C@H]4CCCCN4)CC3)cn([C@H]3CC[C@H](O)CC3)c2n1 [compound 20, (4-(7-((1R,4S)-4-hydroxycyclohexyl)-2-(((S)-pentan-2-yl)amino)-7H-pyrrolo[2,3-d]pyrimidin-5-yl)piperidin-1-yl)((R)-piperidin-2-yl)methanone] | < 10 | 100 to 1000
8 | CCC[C@H](C)Nc1ncc2c(C3CCN(S(=O)(=O)CCOC)CC3)cn([C@H]3CC[C@H](O)CC3)c2n1 [compound 4, (1S,4R)-4-(5-(1-((2-methoxyethyl)sulfonyl)piperidin-4-yl)-2-(((S)-pentan-2-yl)amino)-7H-pyrrolo[2,3-d]pyrimidin-7-yl)cyclohexan-1-ol] | < 10 | 100 to 1000
9 | CCC[C@H](C)Nc1ncc2c(C3CCN(C(=O)[C@H]4CCCNC4)CC3)cn([C@H]3CC[C@H](O)CC3)c2n1 [compound 24, (4-(7-((1R,4S)-4-hydroxycyclohexyl)-2-(((S)-pentan-2-yl)amino)-7H-pyrrolo[2,3-d]pyrimidin-5-yl)piperidin-1-yl)((S)-piperidin-3-yl)methanone] | < 10 | 10 to 100
10 | CCC[C@H](C)Nc1ncc2c(C3CCN(C4CCN(C)CC4)CC3)cn([C@H]3CC[C@H](O)CC3)c2n1 [compound 52, (1S,4R)-4-(5-(1′-methyl-[1,4′-bipiperidin]-4-yl)-2-(((S)-pentan-2-yl)amino)-7H-pyrrolo[2,3-d]pyrimidin-7-yl)cyclohexan-1-ol] | < 10 | 10 to 100
11 | CCC[C@H](C)Nc1ncc2c(C3CCN(S(=O)(=O)C4CCNCC4)CC3)cn([C@H]3CC[C@H](O)CC3)c2n1 [compound 3, (1S,4R)-4-(2-(((S)-pentan-2-yl)amino)-5-(1-(piperidin-4-ylsulfonyl)piperidin-4-yl)-7H-pyrrolo[2,3-d]pyrimidin-7-yl)cyclohexan-1-ol] | < 10 | 10 to 100

Other lines, results leading:

Row | IC50 [1] [nM] | IC50 [2] [nM] | SMILES
12 | < 10 | 1000 to 30000 | Cc1cc(C(=O)N2CCC(c3cn([C@H]4CC[C@H](O)CC4)c4nc(NCCCCO)ncc34)CC2)cc(C)n1 [compound 100, (2,6-dimethylpyridin-4-yl)(4-(2-((4-hydroxybutyl)amino)-7-((1r,4r)-4-hydroxycyclohexyl)-7H-pyrrolo[2,3-d]pyrimidin-5-yl)piperidin-1-yl)methanone]
13 | < 10 | 10 to 100 | CCC[C@H](C)Nc1ncc2c(C3CCN(C(=O)C4CNC4)CC3)cn([C@H]3CC[C@H](O)CC3)c2n1 [compound 13, Azetidin-3-yl(4-(7-((1R,4S)-4-hydroxycyclohexyl)-2-(((S)-pentan-2-yl)amino)-7H-pyrrolo[2,3-d]pyrimidin-5-yl)piperidin-1-yl)methanone]
14 | < 10 | 100 to 1000 | CCC[C@H](C)Nc1ncc2c(C3CCN(C(=O)c4cc(F)cc(F)c4)CC3)cn([C@H]3CC[C@H](O)CC3)c2n1 [compound 81, (3,5-difluorophenyl)(4-(7-((1R,4S)-4-hydroxycyclohexyl)-2-(((S)-pentan-2-yl)amino)-7H-pyrrolo[2,3-d]pyrimidin-5-yl)piperidin-1-yl)methanone]
15 | < 10 | 10 to 100 | CCC[C@H](C)Nc1ncc2c(C3CCN(C(=O)C4CCNC4)CC3)cn([C@H]3CC[C@H](O)CC3)c2n1 (stereo partly drawn) [compound 17, (4-(7-((1R,4S)-4-hydroxycyclohexyl)-2-(((S)-pentan-2-yl)amino)-7H-pyrrolo[2,3-d]pyrimidin-5-yl)piperidin-1-yl)(pyrrolidin-3-yl)methanone]
16 | < 10 | 10 to 100 | CCC(CC)CNc1ncc2c(C3CCN(C(=O)c4cc(C)nc(C)c4)CC3)cn([C@H]3CC[C@H](O)CC3)c2n1 [compound 69, (2,6-dimethylpyridin-4-yl)(4-(2-((2-ethylbutyl)amino)-7-((1r,4r)-4-hydroxycyclohexyl)-7H-pyrrolo[2,3-d]pyrimidin-5-yl)piperidin-1-yl)methanone]
17 | < 10 | 100 to 1000 | CCC[C@H](C)Nc1ncc2c(C3CCN(C(=O)c4cc(C)nc(C)c4)CC3)cn(C[C@H]3CC[C@H](N)CC3)c2n1 [compound 102, (4-(7-(((1R,4S)-4-aminocyclohexyl)methyl)-2-(((S)-pentan-2-yl)amino)-7H-pyrrolo[2,3-d]pyrimidin-5-yl)piperidin-1-yl)(2,6-dimethylpyridin-4-yl)methanone]
18 | < 10 | 100 to 1000 | CCC[C@H](C)Nc1ncc2c(C3CCN(C(=O)c4cc(C)nc(C)c4)CC3)cn([C@H]3CC[C@H](C(F)F)CC3)c2n1 [compound 88, (4-(7-((1R,4S)-4-(difluoromethyl)cyclohexyl)-2-(((S)-pentan-2-yl)amino)-7H-pyrrolo[2,3-d]pyrimidin-5-yl)piperidin-1-yl)(2,6-dimethylpyridin-4-yl)methanone]
19 | < 10 | 10 to 100 | CCC[C@H](C)Nc1ncc2c(C3CCN(C(=O)c4ccc(NC)cc4)CC3)cn([C@H]3CC[C@H](O)CC3)c2n1 [compound 83, (4-(7-((1R,4S)-4-hydroxycyclohexyl)-2-(((S)-pentan-2-yl)amino)-7H-pyrrolo[2,3-d]pyrimidin-5-yl)piperidin-1-yl)(4-(methylamino)phenyl)methanone]
20 | < 10 | 10 to 100 | CCC[C@H](C)Nc1ncc2c(C3CCN(C(=O)c4ccc(CNC)cc4)CC3)cn([C@H]3CC[C@H](O)CC3)c2n1 [compound 85, (4-(7-((1R,4S)-4-hydroxycyclohexyl)-2-(((S)-pentan-2-yl)amino)-7H-pyrrolo[2,3-d]pyrimidin-5-yl)piperidin-1-yl)(4-((methylamino)methyl)phenyl)methanone]
21 | < 10 | 100 to 1000 | CCC[C@H](C)Nc1ncc2c(C3CCN(C(=O)c4ccc[nH]4)CC3)cn([C@H]3CC[C@H](O)CC3)c2n1 [compound 60, (4-(7-((1R,4S)-4-hydroxycyclohexyl)-2-(((S)-pentan-2-yl)amino)-7H-pyrrolo[2,3-d]pyrimidin-5-yl)piperidin-1-yl)(1H-pyrrol-2-yl)methanone]
22 | < 10 | 10 to 100 | CCC[C@H](C)Nc1ncc2c(C3CCN(C(=O)c4ccc(CN(C)C)cc4)CC3)cn([C@H]3CC[C@H](O)CC3)c2n1 [compound 87, (4-((dimethylamino)methyl)phenyl)(4-(7-((1R,4S)-4-hydroxycyclohexyl)-2-(((S)-pentan-2-yl)amino)-7H-pyrrolo[2,3-d]pyrimidin-5-yl)piperidin-1-yl)methanone]
23 | < 10 | 10 to 100 | CCC[C@H](C)Nc1ncc2c(C3CCN(C(=O)c4cc(C)nc(C)c4)CC3)cn([C@H]3CC[C@H](O)CC3)c2n1 [compound 34, (2,6-dimethylpyridin-4-yl)(4-(7-((1R,4S)-4-hydroxycyclohexyl)-2-(((S)-pentan-2-yl)amino)-7H-pyrrolo[2,3-d]pyrimidin-5-yl)piperidin-1-yl)methanone]
